Key:
[1] = target: Serotonin (5-Hydroxytryptamine) 5-HT3 (Homo sapiens, UniProt P46098); assay: Lead Profiling Screen, Eurofins Panlabs; assay type: binding; details: Serotonin 5-HT3, hum, read-out: % inh at 10 μM
[2] = Binding in brain homogenate from rat (equilibrium dialysis); assay type: in vitro ADME; details: rat, brain homogenate, rat brain homogenates, read-out: Rat fu,brain
Protocol: transferred to the corresponding wells of new daughter plates (96-shallow-well, V bottom) containing water (Milli-Q, 60 µL/well), and the plates were sealed in preparation for LC-MS/MS analysis (see below). fu was calculated as (analyte to IS MS peak area ratio from Trans-buffer side) / (analyte to IS MS peak area ratio from Cis-plasma side). Mean values for each species were calculated from 3 replicates.
Binding in brain homogenate from rat.
Determination of fraction unbound (f u) in brain homogenate from rat was conducted using the same methodology and procedure than described for plasma protein binding assay with the following modifications: 1) a final compound concentration of 1 μM was used, 2) naïve rat brains were homogenized in DPBS (1:3 composition of brain: DPBS, w/w) using a Mini-Bead Beater™ machine in order to obtain […]
The diluted fraction unbound (f u2) in brain was calculated as (analyte to IS MS peak area ratio from Trans-buffer side) / (analyte to IS MS peak area ratio from Cis-brain homogenate side). Undiluted fraction unbound for the brain was calculated using the following equation: […]
Mean values for each species were calculated from 3 replicates. […]

[3] = target: Prostanoid EP4 (Homo sapiens, UniProt P35408); assay: Lead Profiling Screen, Eurofins Panlabs; assay type: binding; details: Prostanoid EP4, hum, read-out: % inh at 10 μM
[4] = target: Opiate μ (OP3, MOP) (Homo sapiens, UniProt P35372); assay: Lead Profiling Screen, Eurofins Panlabs; assay type: binding; details: hum, read-out: % inh at 10 μM
[5] = target: Histamine H3 (Homo sapiens, UniProt Q9Y5N1); assay: Lead Profiling Screen, Eurofins Panlabs; assay type: binding; details: Histamine H3, hum, read-out: % inh at 10 μM
Text: (§1) Nonetheless, as a non-aryl/heterobiaryl acetylene mGlu5 NAM with an encouraging in vivo rodent PK profile, we wished to further assess VU6043653 as a novel chemotype. Therefore, we compared metabolites in multiple species to better understand species differences in clearance and metabolism. […] Consistent with the high plasma clearance observed in dogs, high turnover was observed more so in dog hepatocytes than any other species tested (see the Supporting Information for additional details and results). To further evaluate our novel chemotype, the off-target and safety/toxicity profiles for this compound were further investigated.
(§2) Table S2. Lead Profiling Screen – Eurofins Panlabs for VU6043653.

[6] = target: Adenosine A2A (Homo sapiens, UniProt P29274); assay: Lead Profiling Screen, Eurofins Panlabs; assay type: binding; details: hum, read-out: % inh at 10 μM
Text: as §1, §2

[7] = target: GABAB1A (Homo sapiens, UniProt Q9UBS5); assay: Lead Profiling Screen, Eurofins Panlabs; assay type: binding; details: hum, read-out: % inh at 10 μM
Text: as §1, §2

[8] = target: Bradykinin B2 (Homo sapiens, UniProt P30411); assay: Lead Profiling Screen, Eurofins Panlabs; assay type: binding; details: Bradykinin B2, hum, read-out: % inh at 10 μM
Text: as §1, §2

[9] = target: Endothelin ETB (Homo sapiens, UniProt P24530); assay: Lead Profiling Screen, Eurofins Panlabs; assay type: binding; details: hum, read-out: % inh at 10 μM
Text: as §1, §2

[10] = target: Adrenergic α1A (Homo sapiens, UniProt P35348); assay: Lead Profiling Screen, Eurofins Panlabs; assay type: binding; details: hum, read-out: % inh at 10 μM
Text: as §1, §2

[11] = target: Adrenergic α2A (Homo sapiens, UniProt P08913); assay: Lead Profiling Screen, Eurofins Panlabs; assay type: binding; details: hum, read-out: % inh at 10 μM
Text: as §1, §2

[12] = target: Histamine H2 (Homo sapiens, UniProt P25021); assay: Lead Profiling Screen, Eurofins Panlabs; assay type: binding; details: Histamine H2, hum, read-out: % inh at 10 μM
Text: as §1, §2

[13] = target: Estrogen Erα (Homo sapiens, UniProt P03372); assay: Lead Profiling Screen, Eurofins Panlabs; assay type: binding; details: hum, read-out: % inh at 10 μM
Text: as §1, §2

[14] = target: Adrenergic β1 (Homo sapiens, UniProt P08588); assay: Lead Profiling Screen, Eurofins Panlabs; assay type: binding; details: Adrenergic β1, hum, read-out: % inh at 10 μM
Text: as §1, §2

[15] = target: Adrenergic α1D (Homo sapiens, UniProt P25100); assay: Lead Profiling Screen, Eurofins Panlabs; assay type: binding; details: hum, read-out: % inh at 10 μM
Text: as §1, §2

[16] = target: Endothelin ETA (Homo sapiens, UniProt P25101); assay: Lead Profiling Screen, Eurofins Panlabs; assay type: binding; details: hum, read-out: % inh at 10 μM
Text: as §1, §2

[17] = target: Glucocorticoid (Homo sapiens, UniProt P04150); assay: Lead Profiling Screen, Eurofins Panlabs; assay type: binding; details: hum, read-out: % inh at 10 μM
Text: as §1, §2

[18] = target: Dopamine D1 (Homo sapiens, UniProt P21728); assay: Lead Profiling Screen, Eurofins Panlabs; assay type: binding; details: Dopamine D1, hum, read-out: % inh at 10 μM
Text: as §1, §2

[19] = target: Dopamine D3 (Homo sapiens, UniProt P35462); assay: Lead Profiling Screen, Eurofins Panlabs; assay type: binding; details: Dopamine D3, hum, read-out: % inh at 10 μM
Text: as §1, §2

[20] = target: Dopamine D2S (Homo sapiens, UniProt P14416); assay: Lead Profiling Screen, Eurofins Panlabs; assay type: binding; details: hum, read-out: % inh at 10 μM
Text: as §1, §2

[21] = target: Dopamine D4.4 (Homo sapiens, UniProt P21917); assay: Lead Profiling Screen, Eurofins Panlabs; assay type: binding; details: Dopamine D4.4, hum, read-out: % inh at 10 μM
Text: as §1, §2

[22] = target: Adenosine A1 (Homo sapiens, UniProt P30542); assay: Lead Profiling Screen, Eurofins Panlabs; assay type: binding; details: Adenosine A1, hum, read-out: % inh at 10 μM
Text: as §1, §2

[23] = target: Cannabinoid CB1 (Homo sapiens, UniProt P21554); assay: Lead Profiling Screen, Eurofins Panlabs; assay type: binding; details: Cannabinoid CB1, hum, read-out: % inh at 10 μM
Text: as §1, §2

[24] = target: Histamine H1 (Homo sapiens, UniProt P35367); assay: Lead Profiling Screen, Eurofins Panlabs; assay type: binding; details: Histamine H1, hum, read-out: % inh at 10 μM
Text: as §1, §2

[25] = target: Bradykinin B1 (Homo sapiens, UniProt P46663); assay: Lead Profiling Screen, Eurofins Panlabs; assay type: binding; details: Bradykinin B1, hum, read-out: % inh at 10 μM
Text: as §1, §2

[26] = target: Adrenergic β2 (Homo sapiens, UniProt P07550); assay: Lead Profiling Screen, Eurofins Panlabs; assay type: binding; details: Adrenergic β2, hum, read-out: % inh at 10 μM
Text: as §1, §2

[27] = target: Adrenergic α1B (Homo sapiens, UniProt P35368); assay: Lead Profiling Screen, Eurofins Panlabs; assay type: binding; details: hum, read-out: % inh at 10 μM
Text: as §1, §2

Glucocorticoid, sequence (P04150 whole entry): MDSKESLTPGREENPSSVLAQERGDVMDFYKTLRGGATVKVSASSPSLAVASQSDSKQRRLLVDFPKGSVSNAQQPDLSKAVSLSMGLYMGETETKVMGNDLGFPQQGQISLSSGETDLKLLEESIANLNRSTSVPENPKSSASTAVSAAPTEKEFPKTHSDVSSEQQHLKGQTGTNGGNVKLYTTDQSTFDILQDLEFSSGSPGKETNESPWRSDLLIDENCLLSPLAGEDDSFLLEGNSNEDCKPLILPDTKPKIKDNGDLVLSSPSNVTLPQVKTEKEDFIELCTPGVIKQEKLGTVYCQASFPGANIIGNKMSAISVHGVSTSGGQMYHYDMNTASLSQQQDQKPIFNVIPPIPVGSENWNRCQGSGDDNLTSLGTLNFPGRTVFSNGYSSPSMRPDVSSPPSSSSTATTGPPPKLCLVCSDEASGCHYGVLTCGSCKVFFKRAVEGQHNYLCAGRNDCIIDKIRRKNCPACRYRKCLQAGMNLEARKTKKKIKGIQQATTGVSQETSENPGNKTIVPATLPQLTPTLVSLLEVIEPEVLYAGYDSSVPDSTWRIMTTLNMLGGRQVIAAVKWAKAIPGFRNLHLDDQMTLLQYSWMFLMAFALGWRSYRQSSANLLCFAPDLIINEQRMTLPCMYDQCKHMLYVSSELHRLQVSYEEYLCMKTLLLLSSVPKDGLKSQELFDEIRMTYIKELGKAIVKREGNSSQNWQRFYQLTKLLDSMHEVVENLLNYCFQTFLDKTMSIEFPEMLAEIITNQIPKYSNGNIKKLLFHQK
Adenosine A2A, sequence (P29274 whole entry): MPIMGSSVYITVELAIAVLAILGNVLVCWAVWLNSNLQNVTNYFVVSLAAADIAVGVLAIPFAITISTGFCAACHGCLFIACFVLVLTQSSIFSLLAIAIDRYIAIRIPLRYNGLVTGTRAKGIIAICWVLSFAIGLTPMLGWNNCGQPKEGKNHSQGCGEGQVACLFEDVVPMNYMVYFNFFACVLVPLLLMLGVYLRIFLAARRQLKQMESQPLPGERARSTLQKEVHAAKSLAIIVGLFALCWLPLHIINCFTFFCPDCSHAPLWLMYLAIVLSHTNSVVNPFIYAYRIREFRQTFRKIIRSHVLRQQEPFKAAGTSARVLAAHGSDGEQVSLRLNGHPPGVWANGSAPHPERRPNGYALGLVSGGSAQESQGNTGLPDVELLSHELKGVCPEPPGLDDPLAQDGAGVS
GABAB1A, sequence (Q9UBS5 15-961 limits assumed): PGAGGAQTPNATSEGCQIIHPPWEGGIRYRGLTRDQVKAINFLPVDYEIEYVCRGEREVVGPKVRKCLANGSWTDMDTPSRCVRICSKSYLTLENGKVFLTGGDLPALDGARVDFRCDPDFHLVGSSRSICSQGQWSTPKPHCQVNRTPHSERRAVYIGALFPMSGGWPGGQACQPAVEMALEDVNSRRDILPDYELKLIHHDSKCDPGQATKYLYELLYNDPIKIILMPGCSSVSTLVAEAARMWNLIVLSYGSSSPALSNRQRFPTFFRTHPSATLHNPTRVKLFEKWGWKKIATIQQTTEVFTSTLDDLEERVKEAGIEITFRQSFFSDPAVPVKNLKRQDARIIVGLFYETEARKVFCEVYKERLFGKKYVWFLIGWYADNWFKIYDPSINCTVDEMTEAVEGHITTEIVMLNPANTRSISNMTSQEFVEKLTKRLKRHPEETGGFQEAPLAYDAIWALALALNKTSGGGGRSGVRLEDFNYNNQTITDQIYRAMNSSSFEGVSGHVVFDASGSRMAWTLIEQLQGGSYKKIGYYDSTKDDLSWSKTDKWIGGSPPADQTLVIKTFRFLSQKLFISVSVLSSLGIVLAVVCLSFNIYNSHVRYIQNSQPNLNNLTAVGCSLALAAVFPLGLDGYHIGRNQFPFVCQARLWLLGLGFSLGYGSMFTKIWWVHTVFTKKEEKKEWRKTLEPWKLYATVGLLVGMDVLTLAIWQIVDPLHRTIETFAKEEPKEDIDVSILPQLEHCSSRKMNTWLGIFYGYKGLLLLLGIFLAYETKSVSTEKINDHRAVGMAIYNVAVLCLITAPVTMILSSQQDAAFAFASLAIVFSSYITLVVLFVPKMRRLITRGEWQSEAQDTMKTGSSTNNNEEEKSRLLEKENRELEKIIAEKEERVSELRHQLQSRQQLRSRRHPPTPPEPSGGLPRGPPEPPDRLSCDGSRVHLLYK
Estrogen Erα, sequence (P03372 whole entry): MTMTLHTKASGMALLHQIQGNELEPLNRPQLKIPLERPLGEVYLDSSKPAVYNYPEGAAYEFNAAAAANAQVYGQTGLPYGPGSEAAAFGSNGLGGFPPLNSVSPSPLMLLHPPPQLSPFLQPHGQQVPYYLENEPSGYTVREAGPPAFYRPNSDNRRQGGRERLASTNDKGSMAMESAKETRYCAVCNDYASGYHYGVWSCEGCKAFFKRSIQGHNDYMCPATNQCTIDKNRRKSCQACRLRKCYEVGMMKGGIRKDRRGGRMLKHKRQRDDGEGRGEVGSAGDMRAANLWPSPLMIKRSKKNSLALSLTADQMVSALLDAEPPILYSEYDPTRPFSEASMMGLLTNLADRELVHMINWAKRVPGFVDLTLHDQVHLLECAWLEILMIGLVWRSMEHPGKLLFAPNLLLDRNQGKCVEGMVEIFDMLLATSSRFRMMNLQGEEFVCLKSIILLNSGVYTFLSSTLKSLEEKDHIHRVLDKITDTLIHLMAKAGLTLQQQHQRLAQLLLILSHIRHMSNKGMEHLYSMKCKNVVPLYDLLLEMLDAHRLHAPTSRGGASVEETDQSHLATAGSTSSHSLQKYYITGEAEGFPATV
Histamine H2, sequence (P25021 whole entry): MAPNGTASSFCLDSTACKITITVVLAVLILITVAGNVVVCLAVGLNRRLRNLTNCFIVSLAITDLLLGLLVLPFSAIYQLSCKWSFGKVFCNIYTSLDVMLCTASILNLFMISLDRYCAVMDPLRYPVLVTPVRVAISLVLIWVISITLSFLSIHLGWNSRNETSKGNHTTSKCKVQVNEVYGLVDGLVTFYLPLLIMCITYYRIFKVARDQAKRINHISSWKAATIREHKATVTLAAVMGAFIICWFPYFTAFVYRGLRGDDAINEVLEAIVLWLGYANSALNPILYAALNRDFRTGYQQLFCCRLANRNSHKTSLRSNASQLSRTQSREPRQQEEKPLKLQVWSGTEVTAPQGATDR
Serotonin (5-Hydroxytryptamine) 5-HT3, sequence (P46098 24-478): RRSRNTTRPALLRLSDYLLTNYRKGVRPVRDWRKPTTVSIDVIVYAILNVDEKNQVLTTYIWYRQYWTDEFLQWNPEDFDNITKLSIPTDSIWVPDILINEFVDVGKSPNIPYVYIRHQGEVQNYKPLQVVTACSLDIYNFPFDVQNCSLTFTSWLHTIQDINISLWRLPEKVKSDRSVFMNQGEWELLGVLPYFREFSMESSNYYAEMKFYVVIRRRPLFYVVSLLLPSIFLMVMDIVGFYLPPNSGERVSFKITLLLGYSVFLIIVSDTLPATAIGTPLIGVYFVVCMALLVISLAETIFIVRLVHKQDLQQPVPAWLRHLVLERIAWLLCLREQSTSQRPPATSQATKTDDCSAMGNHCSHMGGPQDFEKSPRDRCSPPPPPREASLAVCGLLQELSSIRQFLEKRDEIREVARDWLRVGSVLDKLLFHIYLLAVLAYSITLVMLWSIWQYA
Endothelin ETB, sequence (P24530 27-442): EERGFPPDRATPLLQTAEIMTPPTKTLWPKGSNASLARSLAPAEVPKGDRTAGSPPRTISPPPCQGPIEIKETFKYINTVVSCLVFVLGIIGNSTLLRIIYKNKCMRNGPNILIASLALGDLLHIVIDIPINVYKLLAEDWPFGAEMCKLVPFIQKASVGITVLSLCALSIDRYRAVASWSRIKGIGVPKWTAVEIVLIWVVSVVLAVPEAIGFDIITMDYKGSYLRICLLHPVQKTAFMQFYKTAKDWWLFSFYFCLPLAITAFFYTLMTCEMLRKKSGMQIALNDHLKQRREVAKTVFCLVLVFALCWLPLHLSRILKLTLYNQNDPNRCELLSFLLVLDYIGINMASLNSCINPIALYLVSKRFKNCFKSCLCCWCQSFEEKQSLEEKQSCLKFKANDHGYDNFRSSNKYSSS
Dopamine D1, sequence (P21728 whole entry): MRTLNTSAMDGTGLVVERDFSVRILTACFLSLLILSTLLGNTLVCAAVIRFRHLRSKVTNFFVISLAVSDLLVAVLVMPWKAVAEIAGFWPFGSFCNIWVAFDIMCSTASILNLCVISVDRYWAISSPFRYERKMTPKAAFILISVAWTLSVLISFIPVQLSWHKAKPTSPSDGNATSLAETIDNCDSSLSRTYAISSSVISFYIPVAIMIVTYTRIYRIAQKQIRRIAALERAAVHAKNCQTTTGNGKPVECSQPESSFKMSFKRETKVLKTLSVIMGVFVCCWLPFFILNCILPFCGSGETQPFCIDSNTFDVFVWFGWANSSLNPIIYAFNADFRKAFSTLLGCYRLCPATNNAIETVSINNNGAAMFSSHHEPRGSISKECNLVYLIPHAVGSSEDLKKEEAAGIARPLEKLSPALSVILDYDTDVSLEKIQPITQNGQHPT
Histamine H3, sequence (Q9Y5N1 whole entry): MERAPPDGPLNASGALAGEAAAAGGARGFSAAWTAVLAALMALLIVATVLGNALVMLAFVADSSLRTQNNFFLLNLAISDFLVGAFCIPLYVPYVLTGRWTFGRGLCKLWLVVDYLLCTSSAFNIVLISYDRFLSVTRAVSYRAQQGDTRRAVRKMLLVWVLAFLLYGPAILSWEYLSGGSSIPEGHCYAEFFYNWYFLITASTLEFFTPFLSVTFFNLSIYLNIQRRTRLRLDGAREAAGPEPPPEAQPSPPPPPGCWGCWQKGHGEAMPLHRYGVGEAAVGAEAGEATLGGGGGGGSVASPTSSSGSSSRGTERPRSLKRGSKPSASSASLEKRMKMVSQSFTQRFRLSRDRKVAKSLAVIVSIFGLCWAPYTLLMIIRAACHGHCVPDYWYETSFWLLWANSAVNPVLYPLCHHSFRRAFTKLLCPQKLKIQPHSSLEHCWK

## Cc1cc(Oc2cnn(C)c2)cc(C(=O)Nc2ccc(F)cn2)n1 [22iA]
[1]
  inhibition at 10 µM: -6%
[2]
  fraction unbound at 6 h, 1 µM: 0.012
[3]
  inhibition at 10 µM: 8%
[4]
  inhibition at 10 µM: 9%
[5]
  inhibition at 10 µM: 5%
[6]
  inhibition at 10 µM: 9%
[7]
  inhibition at 10 µM: 3%
[8]
  inhibition at 10 µM: 1%
[9]
  inhibition at 10 µM: -13%
[10]
  inhibition at 10 µM: 0%
[11]
  inhibition at 10 µM: 8%
[12]
  inhibition at 10 µM: -4%
[13]
  inhibition at 10 µM: 4%
[14]
  inhibition at 10 µM: -4%
[15]
  inhibition at 10 µM: 3%
[16]
  inhibition at 10 µM: -2%
[17]
  inhibition at 10 µM: 10%
[18]
  inhibition at 10 µM: -2%
[19]
  inhibition at 10 µM: -6%
[20]
  inhibition at 10 µM: -10%
[21]
  inhibition at 10 µM: -9%
[22]
  inhibition at 10 µM: 20%
[23]
  inhibition at 10 µM: 15%
[24]
  inhibition at 10 µM: 24%
[25]
  inhibition at 10 µM: 4%
[26]
  inhibition at 10 µM: -5%
[27]
  inhibition at 10 µM: 3%
